Measurements from paper PMC11005723, “Development of Complementary Photo‐arginine/lysine to Promote Discovery of Arg/Lys hPTMs Interactomes” (Advanced Science, 2024).
Non-standard residues stand in square brackets, D forms with d. No end group written: not given here. *: point of attachment. Biotin = O=C1N[C@H]2[C@H](CS[C@H]2CCCCC(=O)*)N1; R(dz) = photo-arginine

System: HEK293T nuclear lysates
Experiment: SILAC‐based pull‐down proteomics H4K5me1/H4K5 (probes 6/5)
Assay type: binding, human
Settings: for B6 log2 (H4K5me/H4K5): run B6; for C6 log (H4K5me/H4K5): run C6

probe 6: H4K5me peptide probe with photo‐arginine R(dz) and K(biotin) (SG[R(dz)]GK(Me)GGKGLGKGGK(Biotin))
proteins recruited (SILAC proteomics H4K5me1/H4K5) (10 µµ probe, 365 nm UV 30 min, streptavidin enrichment, n = 2): could recruit L3MBTL2 | B6 log2 (H4K5me/H4K5) (protein A0A0B4J1Z1 SRSF7): 0.2308 | C6 log (H4K5me/H4K5) (protein A0A0B4J1Z1 SRSF7): 0.1007 | B6 log2 (H4K5me/H4K5) (protein A0A0C4DG89 DDX46): 0.248 | C6 log (H4K5me/H4K5) (protein A0A0C4DG89 DDX46): 0.4939 | B6 log2 (H4K5me/H4K5) (protein A0A0C4DG98 THOC2): 0.2302 | C6 log (H4K5me/H4K5) (protein A0A0C4DG98 THOC2): -0.4085 | B6 log2 (H4K5me/H4K5) (protein A0A2R8Y5G6 DDX3X): 0.1671 | C6 log (H4K5me/H4K5) (protein A0A2R8Y5G6 DDX3X): 0.08362 | B6 log2 (H4K5me/H4K5) (protein A0A2R8Y855 SMARCE1): 0.1691 | C6 log (H4K5me/H4K5) (protein A0A2R8Y855 SMARCE1): 0.1589 | B6 log2 (H4K5me/H4K5) (protein A0A087WWS1 THOC1): 0.1897 | C6 log (H4K5me/H4K5) (protein A0A087WWS1 THOC1): 0.01015 | B6 log2 (H4K5me/H4K5) (protein A0A087X2G1 DDX1): 0.2376 | C6 log (H4K5me/H4K5) (protein A0A087X2G1 DDX1): 0.1483 | B6 log2 (H4K5me/H4K5) (protein B1AK87 CAPZB): 0.2362 | C6 log (H4K5me/H4K5) (protein B1AK87 CAPZB): 0.1912 | B6 log2 (H4K5me/H4K5) (protein C9JFR7 CYCS): 0.1664 | C6 log (H4K5me/H4K5) (protein C9JFR7 CYCS): 0.2306 | B6 log2 (H4K5me/H4K5) (protein E5RJR5 SKP1): 0.2613 | C6 log (H4K5me/H4K5) (protein E5RJR5 SKP1): 0.4362 | B6 log2 (H4K5me/H4K5) (protein E9PCY7 HNRNPH1): 0.1643 | C6 log (H4K5me/H4K5) (protein E9PCY7 HNRNPH1): -0.04567 | B6 log2 (H4K5me/H4K5) (protein E9PHA2 NCAPH): 0.2207 | C6 log (H4K5me/H4K5) (protein E9PHA2 NCAPH): -0.3454 | B6 log2 (H4K5me/H4K5) (protein F5GYN4 OTUB1): 0.1534 | C6 log (H4K5me/H4K5) (protein F5GYN4 OTUB1): -0.02948 | B6 log2 (H4K5me/H4K5) (protein F5H8F7 ASH2L): 0.1889 | C6 log (H4K5me/H4K5) (protein F5H8F7 ASH2L): 0.02508 | B6 log2 (H4K5me/H4K5) (protein F8VRQ1 HNRNPA1): 0.2132 | C6 log (H4K5me/H4K5) (protein F8VRQ1 HNRNPA1): 0.1279 | B6 log2 (H4K5me/H4K5) (protein G3V4C1 HNRNPC): 0.1754 | C6 log (H4K5me/H4K5) (protein G3V4C1 HNRNPC): 0.1012 | B6 log2 (H4K5me/H4K5) (protein G3V529 DDX24): 0.1507 | C6 log (H4K5me/H4K5) (protein G3V529 DDX24): -0.9684 | B6 log2 (H4K5me/H4K5) (protein J3KTA4 DDX5): 0.1484 | C6 log (H4K5me/H4K5) (protein J3KTA4 DDX5): 0.164 | B6 log2 (H4K5me/H4K5) (protein M0R3H0 RPS16): 0.2369 | C6 log (H4K5me/H4K5) (protein M0R3H0 RPS16): -0.3242 | B6 log2 (H4K5me/H4K5) (protein O00567 NOP56): 0.2329 | C6 log (H4K5me/H4K5) (protein O00567 NOP56): 0.2086 | B6 log2 (H4K5me/H4K5) (protein O14980 XPO1): 0.2117 | C6 log (H4K5me/H4K5) (protein O14980 XPO1): -0.03544 | B6 log2 (H4K5me/H4K5) (protein O15042 U2SURP): 0.1992 | C6 log (H4K5me/H4K5) (protein O15042 U2SURP): 0.3265 | B6 log2 (H4K5me/H4K5) (protein O43143 DHX15): 0.2048 | C6 log (H4K5me/H4K5) (protein O43143 DHX15): 0.2816 | B6 log2 (H4K5me/H4K5) (protein O43290 SART1): 0.229 | C6 log (H4K5me/H4K5) (protein O43290 SART1): 0.0852 | B6 log2 (H4K5me/H4K5) (protein O43395 PRPF3): 1.011 | C6 log (H4K5me/H4K5) (protein O43395 PRPF3): 1.011 | B6 log2 (H4K5me/H4K5) (protein O43491 EPB41L2): 0.1873 | C6 log (H4K5me/H4K5) (protein O43491 EPB41L2): 0.1809 | B6 log2 (H4K5me/H4K5) (protein O43719 HTATSF1): 0.2156 | C6 log (H4K5me/H4K5) (protein O43719 HTATSF1): 0.1171 | B6 log2 (H4K5me/H4K5) (protein O43929 ORC4): 0.2071 | C6 log (H4K5me/H4K5) (protein O43929 ORC4): 0.2724 | B6 log2 (H4K5me/H4K5) (protein O60216 RAD21): 0.1881 | C6 log (H4K5me/H4K5) (protein O60216 RAD21): 0.2602 | B6 log2 (H4K5me/H4K5) (protein O60934 NBN): 0.1747 | C6 log (H4K5me/H4K5) (protein O60934 NBN): 0.1942 | B6 log2 (H4K5me/H4K5) (protein O75525 KHDRBS3): 0.1909 | C6 log (H4K5me/H4K5) (protein O75525 KHDRBS3): 0.05512 | B6 log2 (H4K5me/H4K5) (protein O95202 LETM1): 0.2397 | C6 log (H4K5me/H4K5) (protein O95202 LETM1): 0.3564 | B6 log2 (H4K5me/H4K5) (protein O95218 ZRANB2): 0.1711 | C6 log (H4K5me/H4K5) (protein O95218 ZRANB2): 0.2764 | B6 log2 (H4K5me/H4K5) (protein O95456 PSMG1): 0.8105 | C6 log (H4K5me/H4K5) (protein O95456 PSMG1): 0.8105 | B6 log2 (H4K5me/H4K5) (protein O95983 MBD3): 0.1485 | C6 log (H4K5me/H4K5) (protein O95983 MBD3): 0.1715 | B6 log2 (H4K5me/H4K5) (protein P06748 NPM1): 0.1928 | C6 log (H4K5me/H4K5) (protein P06748 NPM1): 0.1848 | B6 log2 (H4K5me/H4K5) (protein P07900 HSP90AA1): 0.1623 | C6 log (H4K5me/H4K5) (protein P07900 HSP90AA1): 0.0357 | B6 log2 (H4K5me/H4K5) (protein P09661 SNRPA1): 0.1608 | C6 log (H4K5me/H4K5) (protein P09661 SNRPA1): 0.0265 | B6 log2 (H4K5me/H4K5) (protein P11142 HSPA8): 0.1602 | C6 log (H4K5me/H4K5) (protein P11142 HSPA8): 0.128 | B6 log2 (H4K5me/H4K5) (protein P11388 TOP2A): 0.1715 | C6 log (H4K5me/H4K5) (protein P11388 TOP2A): -0.2242 | B6 log2 (H4K5me/H4K5) (protein P12004 PCNA): 0.186 | C6 log (H4K5me/H4K5) (protein P12004 PCNA): 0.08942 | B6 log2 (H4K5me/H4K5) (protein P19338 NCL): 0.2437 | C6 log (H4K5me/H4K5) (protein P19338 NCL): 0.2101 | B6 log2 (H4K5me/H4K5) (protein P22061 PCMT1): 0.8673 | C6 log (H4K5me/H4K5) (protein P22061 PCMT1): 0.8673 | B6 log2 (H4K5me/H4K5) (protein P22087 FBL): 0.1734 | C6 log (H4K5me/H4K5) (protein P22087 FBL): 0.2534 | B6 log2 (H4K5me/H4K5) (protein P22102 GART): 0.1557 | C6 log (H4K5me/H4K5) (protein P22102 GART): -0.03854 | B6 log2 (H4K5me/H4K5) (protein P25398 RPS12): 0.2482 | C6 log (H4K5me/H4K5) (protein P25398 RPS12): 0.204 | B6 log2 (H4K5me/H4K5) (protein P29692 EEF1D): 0.1672 | C6 log (H4K5me/H4K5) (protein P29692 EEF1D): -0.1339 | B6 log2 (H4K5me/H4K5) (protein P31153 MAT2A): 0.1703 | C6 log (H4K5me/H4K5) (protein P31153 MAT2A): 0.05667 | B6 log2 (H4K5me/H4K5) (protein P42166 TMPO): 0.2154 | C6 log (H4K5me/H4K5) (protein P42166 TMPO): 0.1594 | B6 log2 (H4K5me/H4K5) (protein P46109 CRKL): 0.2247
